The test system of assay [1] is Candida albicans (American Type Culture Collection strain 10231). In words: Control of Candida albicans infection in mice. In kind it is in vivo. As to conditions: for % Survival: mortality over 10 days. As to the method:
Compound 1 (6-(4-chlorophenyl)-2-(2′-pentynyl)pyridazinone, described as compound 109 in European Patent Publication No. EP 478 195 A1) in 5% dimethylsulfoxide (DMSO) in saline solution was administered intraperitoneally 1 h before and at 4, 24, 48 and 72 h after intravenous inoculation with Candida albicans (American Type Culture Collection strain 10231). Ten mice were used for each treatment. Mortality was recorded over a period of 10 days.

Assay [2] deals with Saccharomyces cerevisiae (strain X2180-1A). In words: Effect of fatty acids on fungitoxicity (growth inhibition, absorbance at 700 nm). In kind it is cell-based. To be noted: 22 h, 1.2 ppm. As to the method: Fifty ml of YPG culture medium (10 g yeast extract, 20 g peptone, and 20 g glucose per liter of water) in a 250 ml Erlenmeyer flask was inoculated with Saccharomyces cereviae (strain X2180-1A) to give an absorbance at 700 nm of 0.02. This culture was incubated for 18 h at 30° C. with shaking at 225 rpm. The cells were harvested by centrifugation, washed once with SD medium (6.7 g Bacto-yeast nitrogen base and 20 g glucose per liter of water), and suspended in SD medium to give an Absorbance at 700 nm of 0.04. Aliquots (5 ml) of cell suspension were distributed in 20 ml capacity glass vials. Treatments containing compound 1 or cerulenin received 25 μl of a solution of compound in dimethylsulfoxide (DMSO) at 240 ppm or 160 ppm, respectively. Control treatments without compound 1 or cerulenin received 25 ul DMSO. Treatments containing a fatty acid received 25 μl of a 2 mM solution of the fatty acid in a 1% solution of Triton X-100 providing a concentration of 10 μM. Treatments without fatty acid received 25 ul of 1% Triton X-100. All treatments were carried out in duplicate. Vials were incubated for 22 h at 30° C. with shaking at 225 rpm. Growth of the cells was then estimated by diluting the cells in each treatment 3-fold with SD medium and measuring the asorbance at 700 nm. The results in Table 3 show inhibition of growth expressed as a percentage of growth in DMSO controls containing Triton X-100 but lacking Compound 1, cerulenin or fatty acid.

Assay [3] addresses T1, Yeast Δ-9 fatty acid desaturase (Saccharomyces cerevisiae, UniProt P21147).
T1 construct: the resulting microsomal pellet suspended in 10 ml of ice-cold 0.1 M potassium phosphate buffer; endogenous in cells; host or cells: Saccharomyces cerevisiae ATCC strain 12341, microsomal fraction
Briefly: Yeast microsomal Δ-9 fatty acid desaturase assay (14C-palmitoyl-CoA to palmitoleic acid). It counts as biochemical. The method, then: The following method was used to prepare the microsomal Δ-9 fatty acid desaturase from yeast. Two 250 ml flasks containing 100 ml each of glucose-yeast extract medium (0.4% yeast extract and 2% glucose) were inoculated with Saccharomyces cerevisiae strain 12341 obtained from the American Type Culture Collection, and grown for 48 h at 30° C. with shaking at 250 rpm. The cells were used to inoculate a 4 liter flask containing 3.6 liters of medium. The cells were grown at 30° C. with gentle shaking at 90 rpm for 24 h. […]
Delta-9 Fatty acid desaturase assays were performed by measuring the desaturation of ^14C-palmitoyl-CoA to palmitoleic acid using 0.5 ml reaction mixtures containing 0.1 M potassium phosphate buffer, pH 7.2, 1 mM NADH and 26 μM ^14C-palmitoyl-CoA (0.028 μCi per assay) in 13×100 mm glass culture tubes. […] The upper cyclohexane layer was removed and 100 μI analyzed by HPLC on a Supelcosil LC-18 column (25×4.6 mm) with methanol-water-phosphoric acid (90:9.9:0.1, by volume) as the mobile phase at a flow rate of 1 ml/min. A Packard A120 RAM detector was used to determine the amounts of radioactivity in the palmitic and palmitoleic acid fractions. The percent inhibition of desaturation was determined by comparing the production of palmitoleic acid in assays containing compound 1 with production in assays containing DMSO alone. […]

Molecules are shown by their SMILES.

We go through one compound from patent US20050095663A1, “Process for screening fungitoxic compounds” (priority 2002, published 2005).

T1 sequence (P21147 whole entry, stated change not applied): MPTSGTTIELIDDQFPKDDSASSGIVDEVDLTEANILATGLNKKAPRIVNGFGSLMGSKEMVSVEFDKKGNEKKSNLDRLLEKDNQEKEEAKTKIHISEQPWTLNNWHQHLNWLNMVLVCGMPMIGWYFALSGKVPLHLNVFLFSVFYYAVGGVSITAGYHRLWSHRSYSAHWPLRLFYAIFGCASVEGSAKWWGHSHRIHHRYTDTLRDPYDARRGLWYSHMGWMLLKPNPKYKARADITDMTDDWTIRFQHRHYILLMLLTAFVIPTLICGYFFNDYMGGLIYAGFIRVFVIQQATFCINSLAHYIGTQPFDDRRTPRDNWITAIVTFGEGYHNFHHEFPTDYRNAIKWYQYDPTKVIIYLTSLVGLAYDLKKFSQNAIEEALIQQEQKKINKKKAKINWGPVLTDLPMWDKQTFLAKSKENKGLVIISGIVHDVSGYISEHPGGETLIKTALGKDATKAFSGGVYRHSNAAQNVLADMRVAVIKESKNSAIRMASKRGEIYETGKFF

For orientation: inhibition means the relative decrease from the control value, in per cent. Read a low inhibition as a weak effect. With `CCC#CCn1nc(-c2ccc(Cl)cc2)ccc1=O` [Compound 1, 6-(4-chlorophenyl)-2-(2′-pentynyl)pyridazinone], the “Inhibition of Candida albicans infection in mice (in words)” value in assay [1] is “effective inhibitor”. The “% Survival” value is 20% in assay [1] (10 mg/kg); 40% in assay [1] (30 mg/kg intraperitoneally 1 h before and 4, 24, 48, 72 h after i.v. inoculation); 50% in assay [1] (100 mg/kg intraperitoneally 1 h before and 4, 24, 48, 72 h after i.v. inoculation). The inhibition at 1.2 ppm in assay [2] (no fatty acid) was 76.9%; in assay [2] (oleic acid 10 μM), 18.7%; in assay [2] (palmitic acid 10 μM), 95.5%; in assay [2] (palmitoleic acid 10 μM) it was 21.8%; in assay [2] (pentadecanoic acid 10 μM), 96.7%. Further, the “Inhibition of fungal Δ-9 fatty acid desaturase (in words)” value in assay [3] is recorded as “potent inhibitor”. Further, the “Yeast desaturase EC50” value in assay [3] (microsomal preparation, 26 μM 14C-palmitoyl-CoA, 30° C., 5 min) was found to be 0.055 ppm.
